The values that follow come from patent publication US11091479B2, “Triazolopyridin-3-ones or their salts and pharmaceutical compositions comprising the same” (YUHAN CORPORATION, priority 2018, dated 2021).

What all share (assay type): biochemical
Assay [1] deals with T1, recombinant human MAO-A (monoamine oxidase-A) (Homo sapiens, UniProt P21397).
T1 construct: purchased Sigma-Aldrich
T1 sequence (P21397 1-527): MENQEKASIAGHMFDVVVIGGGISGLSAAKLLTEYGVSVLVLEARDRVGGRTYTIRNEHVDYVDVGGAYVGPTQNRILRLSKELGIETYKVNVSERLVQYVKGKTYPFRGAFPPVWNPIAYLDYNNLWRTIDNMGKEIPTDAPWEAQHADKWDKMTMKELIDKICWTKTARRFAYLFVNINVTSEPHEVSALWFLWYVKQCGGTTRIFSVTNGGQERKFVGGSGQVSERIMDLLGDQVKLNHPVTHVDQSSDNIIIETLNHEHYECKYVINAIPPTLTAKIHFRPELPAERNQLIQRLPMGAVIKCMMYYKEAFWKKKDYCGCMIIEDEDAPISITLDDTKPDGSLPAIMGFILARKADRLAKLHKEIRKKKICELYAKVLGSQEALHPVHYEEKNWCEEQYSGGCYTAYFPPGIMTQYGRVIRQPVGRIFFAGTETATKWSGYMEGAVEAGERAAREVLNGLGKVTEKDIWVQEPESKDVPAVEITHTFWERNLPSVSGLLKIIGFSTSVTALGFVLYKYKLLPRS
Description: Activity on recombinant human MAO-A, method similar to VAP-1 assay, 0.5 mM tyramine substrate. To be noted: read-out: Inhibitory Activity (IC50, nM) MAO-A. Summed up: (§1)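 Amplex Red/HRP-coupled H2O2 fluorescence assay run as for VAP-1: enzyme in 50 mM sodium phosphate pH 7.4 preincubated with compound 30 min at 37 °C, then substrate (putrescine for DAO, benzylamine for MAO-B, tyramine for MAO-A) added with 200 uM Amplex Red, 1 U/mL HRP. Signal rate over 1-2 h; IC50 from 4-parameter logistic fit.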

For the next assay, the target named is T2, recombinant human VAP-1 (Homo sapiens, UniProt Q16853).
T2 construct: purchased R&D systems
T2 sequence (Q16853 1-763): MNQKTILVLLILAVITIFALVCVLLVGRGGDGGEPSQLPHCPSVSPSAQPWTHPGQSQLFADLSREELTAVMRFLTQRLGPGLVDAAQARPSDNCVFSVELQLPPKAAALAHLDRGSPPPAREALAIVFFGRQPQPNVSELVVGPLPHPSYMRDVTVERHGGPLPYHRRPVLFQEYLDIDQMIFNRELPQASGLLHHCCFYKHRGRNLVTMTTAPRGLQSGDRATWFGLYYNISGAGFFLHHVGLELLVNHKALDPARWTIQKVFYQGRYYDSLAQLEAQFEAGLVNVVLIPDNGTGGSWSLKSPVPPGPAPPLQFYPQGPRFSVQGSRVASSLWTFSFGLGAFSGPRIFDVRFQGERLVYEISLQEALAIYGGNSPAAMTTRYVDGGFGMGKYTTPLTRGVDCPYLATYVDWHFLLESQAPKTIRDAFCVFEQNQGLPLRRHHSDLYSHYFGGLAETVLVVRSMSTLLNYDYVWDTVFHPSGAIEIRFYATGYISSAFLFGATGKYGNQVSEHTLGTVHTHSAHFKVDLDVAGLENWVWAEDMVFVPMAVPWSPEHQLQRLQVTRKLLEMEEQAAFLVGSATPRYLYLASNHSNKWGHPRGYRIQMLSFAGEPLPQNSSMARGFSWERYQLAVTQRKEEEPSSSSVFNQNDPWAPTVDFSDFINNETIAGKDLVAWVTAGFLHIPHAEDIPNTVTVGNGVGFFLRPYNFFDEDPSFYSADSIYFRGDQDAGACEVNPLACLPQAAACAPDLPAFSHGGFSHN
Description: Activity on recombinant human VAP-1, HRP-coupled Amplex Red hydrogen peroxide assay, benzylamine substrate. The settings on record: 30 min incubation at 37° C., 1 mM benzylamine, read-out: Inhibitory Activity (IC50, nM) human VAP-1. In a few lines:
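Recombinant human VAP-1 in 50 mM sodium phosphate pH 7.4 preincubated with compound for 30 min at 37 °C, then 1 mM benzylamine, 200 uM Amplex Red and 1 U/mL HRP added. Resorufin fluorescence (ex 544/em 590 nm) followed over 1-2 h; % signal-rate decrease vs DMSO control, 8-point 4-parameter fit for IC50.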

Assay [2] addresses T3, recombinant human MAO-B (monoamine oxidase-B) (Homo sapiens, UniProt P27338).
T3 construct: purchased Sigma-Aldrich
T3 sequence (P27338 1-520): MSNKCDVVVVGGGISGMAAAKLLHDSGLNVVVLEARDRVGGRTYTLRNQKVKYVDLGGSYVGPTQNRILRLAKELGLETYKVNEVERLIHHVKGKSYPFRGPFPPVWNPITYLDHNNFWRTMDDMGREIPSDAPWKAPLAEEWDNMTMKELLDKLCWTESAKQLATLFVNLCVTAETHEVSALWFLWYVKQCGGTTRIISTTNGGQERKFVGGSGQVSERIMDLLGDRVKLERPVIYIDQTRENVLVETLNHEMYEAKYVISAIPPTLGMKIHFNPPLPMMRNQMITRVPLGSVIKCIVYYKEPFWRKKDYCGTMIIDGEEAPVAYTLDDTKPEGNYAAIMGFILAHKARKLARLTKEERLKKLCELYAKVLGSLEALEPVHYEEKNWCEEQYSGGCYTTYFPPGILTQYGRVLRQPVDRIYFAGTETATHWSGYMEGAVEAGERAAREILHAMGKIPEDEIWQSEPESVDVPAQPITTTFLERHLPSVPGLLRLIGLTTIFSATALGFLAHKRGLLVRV
Briefly: Activity on recombinant human MAO-B, method similar to VAP-1 assay, 1 mM benzylamine substrate. The settings on record: read-out: Inhibitory Activity (IC50, nM) MAO-B. Summed up:
as §1

Assay [3] deals with T4, recombinant human DAO (diamine oxidase) (Homo sapiens, UniProt P19801).
T4 construct: purchased R&D systems
T4 sequence (P19801 20-751): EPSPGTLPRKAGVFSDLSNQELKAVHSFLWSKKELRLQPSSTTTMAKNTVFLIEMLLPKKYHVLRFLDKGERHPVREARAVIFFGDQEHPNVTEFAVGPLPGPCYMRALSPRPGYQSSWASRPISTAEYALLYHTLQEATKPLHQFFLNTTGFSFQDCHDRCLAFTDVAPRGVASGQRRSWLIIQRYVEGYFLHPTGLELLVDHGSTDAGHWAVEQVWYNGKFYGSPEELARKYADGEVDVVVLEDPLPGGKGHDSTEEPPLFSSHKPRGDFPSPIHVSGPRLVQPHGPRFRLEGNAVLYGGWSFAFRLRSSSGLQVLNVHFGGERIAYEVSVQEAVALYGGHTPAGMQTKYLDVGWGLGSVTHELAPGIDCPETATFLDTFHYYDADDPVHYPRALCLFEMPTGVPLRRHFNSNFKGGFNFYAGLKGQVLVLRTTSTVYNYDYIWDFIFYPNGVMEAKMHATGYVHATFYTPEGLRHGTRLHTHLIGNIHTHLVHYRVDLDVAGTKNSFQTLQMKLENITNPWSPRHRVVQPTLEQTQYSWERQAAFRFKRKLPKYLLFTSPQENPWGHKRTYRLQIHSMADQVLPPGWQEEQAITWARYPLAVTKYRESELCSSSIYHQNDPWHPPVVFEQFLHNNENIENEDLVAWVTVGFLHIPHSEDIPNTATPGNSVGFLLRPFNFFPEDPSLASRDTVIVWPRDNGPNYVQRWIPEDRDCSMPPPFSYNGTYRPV
Description: Activity on recombinant human DAO, method similar to VAP-1 assay, 1 mM putrescine substrate. To be noted: read-out: Inhibitory Activity (IC50, nM) DAO. Summed up:
as §1

Structures are written as SMILES. Counter-ions that a name gives are not always drawn.

A word on the IC50: it is the concentration at which inhibition is half-maximal. For `NC/C(=C\F)Cn1nc2ccc(-c3cccc(-c4nc[nH]n4)c3)cn2c1=O` [Example 6, 2-[(2E)-2-(aminomethyl)-3-fluoroprop-2-en-1-yl]-6-[3-(1H-1,2,4-triazol-3-yl)phenyl][1,2,4]triazolo[4,3-a]pyridin-3(2H)-one], the IC50 in assay [1] is above 100000 nM; at recombinant human VAP-1, 2.1 nM; in assay [2], 73 nM; in assay [3] it was below 100 nM.

As to `CN(C)Cc1ccccc1-c1ccn2c(=O)n(C/C(=C/F)CN)nc2c1` [Example 23, 2-[(2E)-2-(aminomethyl)-3-fluoroprop-2-en-1-yl]-7-2-[(dimethylamino)methyl]phenyl[1,2,4]triazolo[4,3-a]pyridin-3(2H)-one hydrochloride], the IC50 was above 10000 nM in assay [1], 7 nM on recombinant human VAP-1, above 10000 nM in assay [2] and 37 nM in assay [3].

Take `CN(C)c1ccc(-c2ccn3c(=O)n(C/C(=C/F)CN)nc3c2)cn1` [Example 32, 2-[(2E)-2-(aminomethyl)-3-fluoroprop-2-en-1-yl]-7-[6-(dimethylamino)pyridin-3-yl][1,2,4]triazolo[4,3-a]pyridin-3(2H)-one hydrochloride]: the IC50 in assay [1] was above 100000 nM; on recombinant human VAP-1 it was 0.4 nM; in assay [2] it was 19 nM; in assay [3], 24 nM.

On to `NC/C(=C\F)Cn1nc2cc(-c3ccc(-c4ccon4)cc3)ccn2c1=O` [Example 25, 2-[(2E)-2-(aminomethyl)-3-fluoroprop-2-en-1-yl]-7-[4-(1,2-oxazol-3-yl)phenyl][1,2,4]triazolo[4,3-a]pyridin-3(2H)-one hydrochloride], for which the IC50 in assay [1] worked out at 18000 nM; on recombinant human VAP-1, 0.2 nM; in assay [2], 220 nM; in assay [3], 9.1 nM.

For the compound `NCC(Cn1nc2cc(C#Cc3cnc4c(c3)OCCN4)ccn2c1=O)=C(F)F` [Example 61, 2-[2-(aminomethyl)-3,3-difluoro-allyl]-7-[2-(3,4-dihydro-2H-pyrido[3,2-b][1,4]oxazin-7-yl)ethynyl]-[1,2,4]triazolo[4,3-a]pyridin-3-one ditrifluoroacetate], the IC50 in assay [1] is above 100000 nM; on recombinant human VAP-1 it was 0.6 nM; in assay [2] it was 37000 nM; in assay [3], 220 nM.

Turning to `NC/C(=C\F)Cn1nc2ccc(-c3ccc(-c4nc[nH]n4)cc3)cn2c1=O` [Example 5, 2-[(2E)-2-(aminomethyl)-3-fluoroprop-2-en-1-yl]-6-[4-(1H-1,2,4-triazol-3-yl)phenyl][1,2,4]triazolo[4,3-a]pyridin-3(2H)-one trifluoroacetate], the IC50 is above 100000 nM in assay [1], 2 nM at recombinant human VAP-1, 1450 nM in assay [2] and below 100 nM in assay [3].

As for `CN(C)c1ccc(-c2ccn3c(=O)n(CC(CN)=C(F)F)nc3c2)cn1` [Example 51, 2-[2-(aminomethyl)-3,3-difluoro-allyl]-7-[6-(dimethylamino)-3-pyridyl]-[1,2,4]triazolo[4,3-a]pyridin-3-one trifluoroacetate], the IC50 in assay [1] is above 100000 nM; at recombinant human VAP-1, 0.4 nM; in assay [2] it was 150 nM; in assay [3] it was 17 nM.

Take `Cc1cc(-c2ccn3c(=O)n(C/C(=C/F)CN)nc3c2)cc2c1NC(=O)CC2` [Example 43, 6-[2-[(2E)-2-(aminomethyl)-3-fluoroprop-2-en-1-yl]-3-oxo-2,3-dihydro[1,2,4]triazolo[4,3-a]pyridin-7-yl]-8-methyl-3,4-dihydroquinolin-2(1H)-one hydrochloride]: the IC50 in assay [1] was above 100000 nM; at recombinant human VAP-1 it was 0.5 nM; in assay [2] it was 140 nM; in assay [3] it was 9.6 nM.

For `NCC(Cn1nc2cc(C#Cc3cnc4c(c3)NCCO4)ccn2c1=O)=C(F)F` [Example 60, 2-[2-(aminomethyl)-3,3-difluoro-allyl]-7-[2-(2,3-dihydro-1H-pyrido[2,3-b][1,4]oxazin-7-yl)ethynyl]-[1,2,4]triazolo[4,3-a]pyridin-3-one ditrifluoroacetate], the IC50 in assay [1] was above 100000 nM; at recombinant human VAP-1 it was 0.4 nM; in assay [2], above 100000 nM; in assay [3], 220 nM.

As for `NCC(Cn1nc2cc(C#Cc3ccc(N4CCOCC4)nc3)ccn2c1=O)=C(F)F` [Example 58, 2-[2-(aminomethyl)-3,3-difluoro-allyl]-7-[2-(6-morpholino-3-pyridyl)ethynyl]-[1,2,4]triazolo[4,3-a]pyridin-3-one trifluoroacetate], the IC50 in assay [1] was above 100000 nM; at recombinant human VAP-1 it was 0.3 nM; in assay [2], 5300 nM; in assay [3], 34 nM.
